Experimental data published in US9289411B2, “Anti-HCV agent” (NATIONAL UNIVERSITY CORPORATION OKAYAMA UNIVERSITY, priority 2011, dated 2016).
Like-named read-outs stand apart in the source and are kept apart here.

What was measured:
[1] = tested on: HCV-RNA replication in OR6 cells (HCV-O strain, HuH-7-derived); assay: microbe, parasite or virus in culture; details: for EC50: Hepatitis C virus, OR6, 72 h; for SI (CC50/EC50): OR6 cells
Source text: (§1) Assay systems using OR6 cells (HCV-O strain), 1B-4R cells (HCV-1B-4 strain), and AH1R cells (HCV-AH1R strain) as HuH-7 cell-derived full-length HCV-RNA-replicating cells, and ORL8 cells (HCV-O strain), ORL11 cells (HCV-O strain), 1B-4RL cells (HCV-1B-4 strain), and KAH5RL cells (HCV-KAH5 strain) as Li23 cell-derived full-length HCV-RNA-replicating cells were used for the quantitative analysis of anti-HCV activity and evaluation of a cytotoxic effect in the present invention. The three cell lines, i.e., the 1B-4R cells, the 1B-4RL cells, and the KAH5RL cells have been disclosed in WO 2010/026965 A1. The AH1R cells may be produced with reference to Mori K et al., BBRC, 371:104-109, 2008 and WO 2010/026965 A1. In addition, all the HCV strains belong to genotype 1b.
(§2) As necessary, an increase or decrease in expression level of an HCV protein (core protein) was examined by a Western blot method.
(§3) In the measurement of the renilla luciferase activity and the measurement by the WST-1 method, experiments were performed in three wells independent of each other, and their means and standard deviation were calculated.
OR6 cells, which had been cultured in general medium for subculture, were plated onto a 24-well plate (2×10^4 cells in 1 mL of medium for […] cell line per well) and cultured. After 24 hours, N-89 was added so as to achieve concentrations of 20 μM, a 2-fold dilution series from 20 μM (10, 5, 2.5, 1.3, 0.63, and 0.31 μM), and 0, or N-251 was added so as to achieve concentrations of 10 μM, a 2-fold dilution series from 10 μM (5, 2.5, 1.3, 0.63, 0.31, and 0.16 μM), and 0. The renilla luciferase activities were measured 72 hours after the culture. N-89 and N-251 were diluted with DMSO.
(§4) The anti-HCV activity of artemisinin was examined using OR6 cells and ORL8 cells and the EC50 values were calculated. An experimental scale and schedule are the same as those in Example 1.
(§5) Artemisinin was added so as to achieve concentrations of 100 μM, a 2-fold dilution series from 100 μM (50, 25, 13, 6.3, 3.1, and 1.6 μM), and 0. The luciferase activities were measured 72 hours after the culture.

[2] = tested on: HCV-RNA replication in ORL8 cells (HCV-O strain, Li23-derived); assay: microbe, parasite or virus in culture; details: for EC50: Hepatitis C virus, ORL8, 72 h; for SI (CC50/EC50) / suppression of the level of HCV-RNA replication: ORL8 cells; for suppression of the level of HCV-RNA replication: 1 μM
Source text: as §1, §2, §3
The anti-HCV activities of N-89 and N-251 were examined using ORL8 cells and the EC50 values were calculated. An experimental scale and schedule are the same as those in Example 1.
N-89 and N-251 were added so as to achieve concentrations of 5 μM, a 2-fold dilution series from 5 μM (2.5, 1.3, 0.63, 0.31, 0.16, and 0.08 μM), and 0. The luciferase activities were measured 72 hours after the culture.
as §4, §5

[3] = tested on: ORL8 cells; assay: Cytotoxic effect, WST-1 cell proliferation assay in ORL8 cells; details: ORL8 cells
Source text: as §1, §3
The cytotoxic effects of N-89 and N-251 were examined using ORL8 cells and the CC50 values were calculated. An experimental scale and schedule are the same as those in Example 1.
N-89 and N-251 were added so as to achieve concentrations of 5 μM, a 2-fold dilution series from 5 μM (2.5, 1.3, 0.63, 0.31, 0.16, and 0.08 μM), and 0. The WST-1 cell proliferation assay was performed 72 hours after the culture.
The cytotoxic effect of artemisinin was examined using OR6 and ORL8 cells and the CC50 values were calculated. An experimental scale and schedule are the same as those in Example 1. Artemisinin was added so as to achieve concentrations of 400 μM, a 2-fold dilution series from 400 μM (200, 100, 50, 25, and 13 μM), and 0. The WST-1 cell proliferation assay was performed 72 hours after the culture.

[4] = tested on: HCV-RNA replication in AH1R cells (HCV-AH1 strain, HuH-7-derived); assay: microbe, parasite or virus in culture; type: cell-based, HCV genotype 1b; details: for EC50: Hepatitis C virus, 72 hours, renilla luciferase activity
Source text: (§6) Assay systems using OR6 cells (HCV-O strain), 1B-4R cells (HCV-1B-4 strain), and AH1R cells (HCV-AH1R strain) as HuH-7 cell-derived full-length HCV-RNA-replicating cells, and ORL8 cells (HCV-O strain), ORL11 cells (HCV-O strain), 1B-4RL cells (HCV-1B-4 strain), and KAH5RL cells (HCV-KAH5 strain) as Li23 cell-derived full-length HCV-RNA-replicating cells were used for the quantitative analysis of anti-HCV activity and evaluation of a cytotoxic effect in the present invention. […] In addition, all the HCV strains belong to genotype 1b.
N-89 was added so as to achieve concentrations of 500 nM, a 2-fold dilution series from 500 nM (250, 125, 63, 31, 16, and 8 nM), and 0. The luciferase activities were measured 72 hours after the culture.
N-251 was added so as to achieve concentrations of 2 μM, a 2-fold dilution series from 2 μM (1, 0.5, 0.25, 0.13, 0.06, and 0.03 μM), and 0. The luciferase activities were measured 72 hours after the culture.

[5] = tested on: HCV-RNA replication in 1B-4RL cells (HCV-1B-4 strain, Li23-derived); assay: microbe, parasite or virus in culture; type: cell-based, HCV genotype 1b; details: for EC50: Hepatitis C virus, 72 hours, renilla luciferase activity
Description: For N-251, the results at concentrations of up to 1.3 μM are shown.

[6] = tested on: HCV core protein in ORL8 cells; assay: Western blot analysis of HCV core protein expression in ORL8 cells; type: cell-based, HCV genotype 1b; details: 72 hours, 0.078-5 μM
Description: N-89 and N-251 were diluted with DMSO. Sampling was performed with 100 μL of 2×SDS buffer 72 hours after the culture. 10 μL of a sample were applied to SDS-PAGE electrophoresis and subjected to Western blot analysis using an anti-HCV core antibody and an anti-β-actin antibody according to a conventional method. It should be noted that for the detection of β-actin, a sample diluted 10-fold with 2×SDS buffer in advance was used.

[7] = tested on: renilla luciferase; assay: Influence on renilla luciferase activity in lysate of ORL8 cells; type: biochemical; details: ORL8 cell lysate, concentrations of up to 20 μM
Description: In the ORL8 cells, the anti-HCV activity is evaluated by measuring the activity of renilla luciferase as a product of an exogenous gene introduced so as to be linked to HCV RNA.
Thus, N-89 or N-251 was added (5 μL) to a lysate (10 μL) of the ORL8 cells (1×10^5 cells, medium for Li23 cell line) so as to achieve final concentrations of 0, 5, 10, and 20 μM, and 50 μL of a substrate were further added thereto. Then, the luciferase activity was measured.
An actual luciferase activity value (RL activity value) at 100% on the ordinate axis was 2.2×10^5 in the case of N-89 and 2.8×10^5 in the case of N-251.

[8] = tested on: HCV-RNA replication in OR6, 1B-4R, AH1R, ORL8, ORL11, 1B-4RL and KAH5RL cells; assay: Anti-HCV activity summarized over cells derived from various HCV strains (reporter assays); type: cell-based, HCV genotype 1b; details: Hepatitis C virus, seven full-length HCV-RNA-replicating cell lines, read-out: EC50 values, range over all cells
[9] = Cytotoxic effect summarized over cells derived from various HCV strains (WST-1); type: cell-based; details: human; seven full-length HCV-RNA-replicating cell lines; read-out: CC50 values, range over all cells
Source text: as §6

C1CCCCCC2(CCCCC1)OOCCCOO2 [N-89, 1,2,6,7-tetraoxaspiro[7,11]nonadecane]
EC50 [1]: 0.66 µM | SI (CC50/EC50) [1]: 14 | EC50 [2]: 0.089 µM | SI (CC50/EC50) [2]: 26 | suppression of the level of HCV-RNA replication [2]: 99% | cytotoxicity at 1 μM (WST-1 assay) [3]: not exhibiting cytotoxicity | SI (CC50/EC50) [4]: about 20 | EC50 [4]: 0.025 µM | SI (CC50/EC50) ([4]; listed as N89): ~20 | SI (CC50/EC50) [5]: 20 | EC50 [5]: 0.12 µM | level of the HCV core protein (Western blot) [6]: reduced depending on the concentrations | inhibition on the renilla luciferase activity [7]: did not show any inhibition | EC50 [8]: 0.025 to 0.66 µM | CC50 [9]: 0.5 to 9.3 µM

OCCCCCCC1COOC2(CCCCCCCCCCC2)OOC1 [N-251, 6-(1,2,6,7-tetraoxaspiro[7,11]nonadec-4-yl)]
EC50 [1]: 0.69 µM | SI (CC50/EC50) [1]: 4.4 | EC50 [2]: 0.1 µM | SI (CC50/EC50) [2]: 13 | suppression of the level of HCV-RNA replication [2]: 99% | cytotoxicity at 1 μM (WST-1 assay) [3]: not exhibiting cytotoxicity | CC50 ([3]; 72 hours, WST-1): 1.3 µM | SI (CC50/EC50) [4]: 3.5 | EC50 [4]: 0.14 µM | SI (CC50/EC50) [5]: 8.3 | EC50 [5]: 0.23 µM | level of the HCV core protein (Western blot) [6]: reduced depending on the concentrations | inhibition on the renilla luciferase activity [7]: did not show any inhibition | EC50 [8]: 0.059 to 0.98 µM | CC50 [9]: 0.49 to 3.8 µM
